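Dose response: 5 concentrations. Exposure: 48 h. Format: 96-well plates. Endpoint: linear interpolation; highest concentration if not reached. GI50 marks 50% less growth. At the TGI there is no net growth.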
What was measured:
Assay in all cases: growth of human tumour cells (NCI), 48 h
K-562 leukemia = tested on: K-562 leukemia
TK-10 renal = tested on: TK-10 renal
NCI-H23 lung = tested on: NCI-H23 lung
NCI-H522 lung = tested on: NCI-H522 lung
KM12 colon = tested on: KM12 colon
CCRF-CEM leukemia = tested on: CCRF-CEM leukemia
SF-268 CNS = tested on: SF-268 CNS
HOP-62 NSCLC = tested on: HOP-62 NSCLC
HT29 colon = tested on: HT29 colon
A498 renal = tested on: A498 renal

Compound	TGI (K-562 leukemia)	TGI (TK-10 renal)	TGI (NCI-H23 lung)	TGI (NCI-H522 lung)	TGI (KM12 colon)	TGI (CCRF-CEM leukemia)	TGI (SF-268 CNS)	TGI (HOP-62 NSCLC)	TGI (HT29 colon)	TGI (A498 renal)	GI50 (K-562 leukemia)	GI50 (TK-10 renal)	GI50 (KM12 colon)	GI50 (CCRF-CEM leukemia)	GI50 (SF-268 CNS)	GI50 (A498 renal)	GI50 (HOP-62 NSCLC)	GI50 (HT29 colon)	GI50 (NCI-H23 lung)	GI50 (NCI-H522 lung)
COc1ccc(C2CCc3cc4c(cc3/C2=N/OC(C)=O)OCO4)cc1OC (configuration not stated)	> 100 µM	> 100 µM	72.6 µM	53.4 µM	54.8 µM	> 100 µM	> 100 µM	> 100 µM	> 100 µM											
COc1cc2c(c(OC)c1OC)-c1ccc(SC)c(=O)cc1[C@@H](NC(=O)c1ccc(Cl)cc1)CC2	> 100 µM	> 100 µM				> 100 µM	> 100 µM	2.03 µM	11.2 µM	< 0.01 µM										
COc1cc2cc3c4c(cc(OC)c(OC)c4c2cc1OC)CCN3C(=O)CCC(=O)NCCCN(C)C	> 100 µM	> 100 µM	> 100 µM	45.8 µM	> 100 µM	88.2 µM	> 100 µM	> 100 µM	51.7 µM											
CC(=O)OC1CC2C(=O)C(=O)C1(C)C2(C)C (configuration not stated)	> 100 µM	> 100 µM	> 100 µM			> 100 µM	> 100 µM	> 100 µM	> 100 µM	> 100 µM										
N[C@@H]1CCCC[C@@H]1N.O=P([O-])([O-])CN(CP(=O)([O-])[O-])CP(=O)([O-])[O-].[Pt+2]	> 100 µM	> 100 µM			> 100 µM	> 100 µM	> 100 µM	> 100 µM	> 100 µM	> 100 µM	> 100 µM	> 100 µM	> 100 µM	> 100 µM	> 100 µM	> 100 µM	> 100 µM	> 100 µM		
C=[CH][Sn]([CH]=C)([O]c1cccc2cccnc12)[O]c1cccc2cccnc12	> 24.9 µM	29.4 µM	6.87 µM	3.36 µM	7.34 µM		29.9 µM	32.8 µM	7.14 µM	14.2 µM	2.73 µM	9.46 µM	3.2 µM		5.12 µM	5.88 µM	10.7 µM	3.26 µM	2.32 µM	0.93 µM
CCC1CNC(=O)CC1CC(=O)OC (configuration not stated)	> 100 µM	> 100 µM	> 100 µM	> 100 µM	> 100 µM		> 100 µM	> 100 µM												
COc1cccc(NC(=O)C(=O)C(C(C)=O)c2nc3ccc(Cl)cc3[nH]c2=O)c1 (configuration not stated)	> 100 µM	> 100 µM	> 100 µM		> 100 µM	> 100 µM	> 100 µM	> 100 µM	> 100 µM	> 100 µM										
OCNCCNc1nc2ccccc2c2[nH]c3ccccc3c12	42.8 µM	9.89 µM	2.69 µM	> 50 µM	7.37 µM		6.44 µM	1.92 µM	> 50 µM	4.46 µM	1.55 µM	1.76 µM	1.54 µM		1.36 µM	1.55 µM	0.371 µM	0.556 µM	0.772 µM	1.55 µM
CCOC(=O)[C@H]1Nc2ccccc2C2c3ccccc3CC21 (some centres not stated)	> 100 µM	> 100 µM	> 100 µM	> 100 µM	> 100 µM		> 100 µM	> 100 µM	37.2 µM	61.8 µM										
CC1OC(OC2CCC3(C=O)C4CCC5(C)C(C6=CC(=O)OC6)CCC5(O)C4CCC3(O)C2)C(O)C(O)C1O (configuration not stated)	0.000263 µM	0.000193 µM	4.11e-05 µM	4.41e-05 µM	0.000298 µM		4.11e-05 µM	3.85e-05 µM		0.000154 µM										
FC1OC2OC1C(OCc1ccccc1)C(OCc1ccccc1)C2OCc1ccccc1 (configuration not stated)	75.1 µM	> 100 µM	> 100 µM		> 100 µM	75.8 µM	> 100 µM		> 100 µM	> 100 µM										
CCN(CC)CCN(C(=O)C(C)(C)C)c1ccccc1N	> 100 µM	> 100 µM	> 100 µM	> 100 µM	> 100 µM	> 100 µM	> 100 µM	> 100 µM	> 100 µM											
O=C(Cc1csc2nc(-c3ccc(Br)cc3)cn12)N/N=C/c1ccc(O)cc1	7.02 µM	33.4 µM	32.2 µM	34.5 µM	76.7 µM	79.9 µM	> 100 µM	53.2 µM	> 100 µM		1.83 µM	9.79 µM	17.6 µM	12.2 µM	> 100 µM		18.1 µM	49.9 µM	7.5 µM	10.7 µM
CN1CCc2c1nc(-c1ccc([N+](=O)[O-])cc1)c1c2N(C)CC1	> 100 µM	> 100 µM	> 100 µM		> 100 µM	> 100 µM	> 100 µM	> 100 µM	> 100 µM	> 100 µM										
C/C=C1\C(=O)OC2CCN3CCC(COC(=O)C(C)(O)C(C)C1O)C23 (configuration not stated)	> 100 µM	> 100 µM	> 100 µM	> 100 µM	> 100 µM		> 100 µM		> 100 µM	> 100 µM										
C[C@@H]1C[C@]2(C[C@@H](C)C3[C@@H](CC4(C)[C@@H]5CCC6C(C)(C)OC(=O)C=C[C@]67C[C@@]5(CC[C@]34C)OO7)O2)OC1=O (some centres not stated)	> 100 µM	> 100 µM	> 100 µM	90.3 µM					> 100 µM											
CSc1ccc(C(=O)C(=O)c2ccc(SC)s2)s1	> 10 µM	> 10 µM	> 10 µM	> 10 µM	> 10 µM	> 10 µM	> 10 µM	> 10 µM	> 10 µM											
C[C@]12CC[C@H](OC3CCCCO3)CC1=CC[C@@H]1C2CC[C@]2(C)/C(=N/O)CCC12 (some centres not stated)	> 100 µM	70.1 µM	39.1 µM	31.1 µM	32.4 µM			> 100 µM	26.8 µM	> 100 µM										
CCOC(=O)C1COc2cc(-c3cc(=O)c4ccccc4o3)ccc2O1 (configuration not stated)	> 100 µM	> 100 µM	> 100 µM	> 100 µM	> 100 µM	> 100 µM	> 100 µM		56.3 µM											
C/C(CC(=O)N(C(C)C)C(C)C)=N\NC(=O)c1ccncc1	> 100 µM		> 100 µM	> 100 µM		> 100 µM	> 100 µM		> 100 µM	> 100 µM										
COc1cccc(C2NC(=S)NC(C)=C2C(=O)Nc2ccc(Cl)c(Cl)c2)c1 (configuration not stated)	> 50 µM	28.6 µM		> 50 µM	20.5 µM		18.7 µM	20.3 µM			16.3 µM	12.8 µM	10.1 µM		9.13 µM		11.6 µM			18.3 µM
COC(=O)CC(C(C(C)=O)C(=O)OCc1ccccc1)N1C(=O)OCC1c1ccccc1 (configuration not stated)	> 100 µM	> 100 µM	> 100 µM			> 100 µM	> 100 µM	> 100 µM	> 100 µM	> 100 µM										
CC1COCC(C)N1C1=C(Cl)C(=O)c2ccccc2C1=O (configuration not stated)	12 µM	26.2 µM	24.7 µM	3.02 µM	25.4 µM		21.1 µM	27.4 µM	45.6 µM	27.6 µM	2.81 µM	13 µM	12.4 µM		7.85 µM	14.4 µM	14 µM	17.5 µM	11.2 µM	1.59 µM
O=c1cc(-c2ccccn2)[nH]c2ccc(Cl)cc12	> 100 µM	> 100 µM	> 100 µM	97.2 µM	> 100 µM	> 100 µM	66.7 µM	> 100 µM	> 100 µM						23.4 µM					
CC1=C(C(=O)Nc2ccc(Cl)c(Cl)c2)C(c2ccccc2O)NC(=O)N1 (configuration not stated)	> 50 µM	> 50 µM		> 50 µM	> 50 µM	> 50 µM	> 50 µM	> 50 µM			26 µM	22.1 µM	16.9 µM	> 50 µM	46.9 µM		> 50 µM			> 50 µM
CCCCCCCCCCCCOP(N)(=O)OCCCCCCCCCCCC	> 100 µM	> 100 µM	> 100 µM	> 100 µM		> 100 µM	> 100 µM	> 100 µM												
C#CCN(Cc1ccc2nc(N)[nH]c(=O)c2c1)c1ccc(C(=O)NC(CCC(=O)O)C(=O)O)cc1 (configuration not stated)		> 100 µM	> 100 µM		> 100 µM	> 100 µM	> 100 µM	> 100 µM	> 100 µM	> 100 µM										
Cc1nc(-n2nc(-c3ccccc3)cc2-c2ccccc2)sc1C(/C=C/c1ccc([N+](=O)[O-])cc1)=N/NC(=O)c1ccncc1	> 100 µM	82.9 µM	40.6 µM		22.4 µM	> 100 µM	> 100 µM	35 µM	> 100 µM	> 100 µM										
Cc1cc([N+](=O)[O-])c(C)c(Br)c1C	> 100 µM	> 100 µM	> 100 µM	> 100 µM	> 100 µM		> 100 µM	> 100 µM	> 100 µM	> 100 µM										

From PubChem BioAssay (NCI)
